Measured values: paper PMC3964510 (Diabetes, 2014)

Target: T1, protein tyrosine phosphatase (PTP) 1B (Homo sapiens, UniProt P18031)
T1 sequence (P18031 1-435): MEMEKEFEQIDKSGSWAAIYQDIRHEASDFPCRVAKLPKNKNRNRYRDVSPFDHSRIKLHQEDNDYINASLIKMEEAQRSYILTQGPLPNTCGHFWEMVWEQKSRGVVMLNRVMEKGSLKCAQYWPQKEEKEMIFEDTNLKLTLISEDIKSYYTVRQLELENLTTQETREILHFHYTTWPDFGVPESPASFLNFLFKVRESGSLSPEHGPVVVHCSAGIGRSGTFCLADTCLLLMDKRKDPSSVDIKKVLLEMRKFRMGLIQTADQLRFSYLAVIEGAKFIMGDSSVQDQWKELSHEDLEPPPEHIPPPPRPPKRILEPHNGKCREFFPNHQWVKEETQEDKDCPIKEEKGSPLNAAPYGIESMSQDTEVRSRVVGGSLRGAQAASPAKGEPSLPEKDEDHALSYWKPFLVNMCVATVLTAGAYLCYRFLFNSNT
Experiment: in vitro PTP1B inhibitor screening assay
Assay type: biochemical

SMILES: C[C@H]1Oc2cc3c(-c4c(O)cc(O)c5c(O)c6c(cc45)O[C@H](C)[C@@H](C)C6=O)c(O)cc(O)c3c(O)c2C(=O)[C@@H]1C [4548-G05, [9,9′-Bi-4H-naphtho[2,3-b]pyran]-4,4′-dione,2,2′,3,3′-tetrahydro-5,5′,6,6′,8,8′-hexahydroxy-2,2′,3,3′-tetramethyl]
- IC50: 75.3 ± 2.52 µM
